Measurements as given in ChEMBL document CHEMBL3407365, “Pachymodulin, a new functional formyl peptide receptor 2 peptidic ligand isolated from frog skin has Janus-like immunomodulatory capacities” (J Med Chem, 2015).
Calls of active or inactive are those of the source.

Experiments:
[1] = molecular target: T1, N-formyl peptide receptor 2 (Homo sapiens) (UniProt P25090); assay: Induction of calcium release in human FPR2 receptor-expressed HEK cell assessed as calcium release through Cav1.2 channel at 10 uM by cytosolic-free calcium assay in presence of 30 uM ATP; assay type: functional, cell-based; conditions: HEK293
T1 sequence (whole entry): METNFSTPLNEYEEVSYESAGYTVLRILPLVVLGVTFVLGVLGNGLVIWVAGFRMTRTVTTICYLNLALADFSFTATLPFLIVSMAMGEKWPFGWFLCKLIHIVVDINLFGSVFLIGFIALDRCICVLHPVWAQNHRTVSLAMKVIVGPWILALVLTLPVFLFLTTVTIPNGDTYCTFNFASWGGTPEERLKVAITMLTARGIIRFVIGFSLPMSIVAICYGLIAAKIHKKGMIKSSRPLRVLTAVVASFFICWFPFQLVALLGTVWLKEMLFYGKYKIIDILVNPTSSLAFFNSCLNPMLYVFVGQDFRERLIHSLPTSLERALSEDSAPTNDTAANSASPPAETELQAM

[2] = molecular target: T1, N-formyl peptide receptor 2 (Homo sapiens); assay: Induction of calcium release in human FPR2 receptor-expressed HEK cell at 10 uM measured after second challenge by cytosolic-free calcium assay; assay type: functional, cell-based; conditions: HEK293
Neutrophil [3] = assay: Induction of […]-induced migration in human neutrophils preincubated at 10 uM after 45 mins by chemotaxis assay; assay type: functional, cell-based
Neutrophil [4] = assay: Induction of migration in human neutrophils preincubated at 10 uM after 45 mins by chemotaxis assay in presence of 10 uM fMLP; assay type: functional, cell-based
Monocyte [5] = assay: Induction of ERK1/2-mediated directional migration in human monocytes assessed as fluorescence of calcein at 10 uM after 45 mins by chemotaxis assay; assay type: functional, cell-based
HEK293 [6] = assay: Induction of HEK cell migration at 10 uM; assay type: functional, cell-based; conditions: Homo sapiens
Escherichia coli [7] = assay: Antibacterial activity against Escherichia coli ATCC 11775; assay type: functional
Neutrophil [8] = assay: Induction of ERK1/2-mediated directional migration in mouse neutrophils assessed as fluorescence of calcein at 10 uM after 45 mins by chemotaxis assay in presence of natural compound; assay type: functional, cell-based
[9] = Hemolytic activity in fresh rat erythrocytes assessed as optical density after 60 mins; assay type: ADME, cell-based; conditions: erythrocyte, 1 h
Monocyte [10] = assay: Induction of ERK1/2-mediated directional migration in mouse monocytes assessed as fluorescence of calcein at 10 uM after 45 mins by chemotaxis assay in presence of natural compound; assay type: functional, cell-based
Neutrophil [11] = assay: Induction of ERK1/2-mediated directional migration in mouse neutrophils assessed as fluorescence of calcein at 10 uM after 45 mins by chemotaxis assay; assay type: functional, cell-based
Staphylococcus aureus = assay: Antibacterial activity against Staphylococcus aureus ATCC 25923; assay type: functional
Mus musculus [12] = assay: Induction of leukocyte recruitment in C57BL/6 mouse assessed as increase in number of monocytes in peritoneal cavity at 40 ug, ip tid 4 hr before pretreated with 3% thioglycollate relative to NaCl treated control; assay type: functional, organism-based
Neutrophil [13] = assay: Induction of ERK1/2-mediated directional migration in human neutrophils assessed as fluorescence of calcein at 10 uM after 45 mins by chemotaxis assay in presence of PD98059 MEK1/2 inhibitor; assay type: functional, cell-based
T-cell [14] = assay: Induction of ERK1/2-mediated directional migration in human T cell assessed as fluorescence of calcein at 10 uM after 45 mins by chemotaxis assay; assay type: functional, cell-based
Mus musculus [15] = assay: Induction of leukocyte recruitment in C57BL/6 mouse assessed as increase in number of neutrophils in blood at 40 ug, ip tid 4 hr before pretreated with 3% thioglycollate relative to NaCl treated control; assay type: functional, organism-based
Neutrophil [16] = assay: Induction of ERK1/2-mediated directional migration in human neutrophils assessed as fluorescence of calcein at 10 uM after 45 mins by chemotaxis assay in presence of natural compound; assay type: functional, cell-based
HEK293 [17] = assay: Induction of calcium release in HEK cell at 10 uM by cytosolic-free calcium assay; assay type: functional, cell-based; conditions: Homo sapiens
Neutrophil [18] = assay: Induction of migration in human neutrophils preincubated at 10 uM after 45 mins by chemotaxis assay in presence of 0.1 uM fMLP; assay type: functional, cell-based
Mus musculus [19] = assay: Induction of leukocyte recruitment in C57BL/6 mouse assessed as increase in number of macrophages in blood at 40 ug, ip tid 4 hr before pretreated with 3% thioglycollate relative to NaCl treated control; assay type: functional, organism-based
Mus musculus [20] = assay: Induction of leukocyte recruitment in C57BL/6 mouse assessed as increase in number of monocytes in blood at 40 ug, ip tid 4 hr before pretreated with 3% thioglycollate relative to NaCl treated control; assay type: functional, organism-based
[21] = molecular target: T1, N-formyl peptide receptor 2 (Homo sapiens); assay: Binding affinity to human FPR2 receptor expressed in HEK cells assessed as heat release at 155 nmol by isothermal titration calorimetry; conditions: HEK293
Mus musculus [22] = assay: Induction of leukocyte recruitment in C57BL/6 mouse assessed as increase in number of monocytes in peritoneal cavity at 40 ug, ip tid relative to NaCl treated control; assay type: functional, organism-based
[23] = molecular target: T2, Formyl peptide receptor-related sequence 1 (Mus musculus) (UniProt O08790); assay: Induction of mouse FPR2 receptor-expressed HEK cell migration at 10 uM; conditions: HEK293
T2 sequence (whole entry): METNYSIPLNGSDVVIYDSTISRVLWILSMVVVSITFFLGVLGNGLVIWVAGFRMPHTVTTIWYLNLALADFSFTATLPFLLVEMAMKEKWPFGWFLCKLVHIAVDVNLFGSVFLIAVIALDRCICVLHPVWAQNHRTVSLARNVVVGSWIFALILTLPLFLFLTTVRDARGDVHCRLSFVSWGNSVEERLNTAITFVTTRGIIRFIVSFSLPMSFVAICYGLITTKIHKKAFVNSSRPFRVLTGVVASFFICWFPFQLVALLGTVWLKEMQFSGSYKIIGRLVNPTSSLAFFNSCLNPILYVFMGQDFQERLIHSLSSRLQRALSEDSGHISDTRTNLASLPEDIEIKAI

[24] = molecular target: T2, Formyl peptide receptor-related sequence 1 (Mus musculus); assay: (§1) Induction of calcium release in mouse FPR2 receptor-expressed HEK cell by cytosolic-free calcium assay; assay type: functional; conditions: HEK293
[25] = molecular target: T3, Formyl peptide receptor-related sequence 1 (Mus musculus, UniProt O08790); assay: as §1; assay type: functional, HEK293
T3 sequence (O08790 whole entry): T2 sequence (whole entry)

Mus musculus [26] = assay: Induction of leukocyte recruitment in C57BL/6 mouse assessed as increase in number of neutrophils in peritoneal cavity at 40 ug, ip tid 4 hr before pretreated with 3% thioglycollate relative to NaCl treated control; assay type: functional, organism-based
Monocyte [27] = assay: Induction of ERK1/2-mediated directional migration in mouse monocytes assessed as fluorescence of calcein at 10 uM after 45 mins by chemotaxis assay; assay type: functional, cell-based
[28] = molecular target: T1, N-formyl peptide receptor 2 (Homo sapiens); assay: Induction of human FPR2 receptor-expressed HEK cell migration at 10 uM; conditions: HEK293
Neutrophil [29] = assay: Induction of ERK1/2-mediated directional migration in human neutrophils assessed as fluorescence of calcein at 10 uM after 45 mins by chemotaxis assay; assay type: functional, cell-based
Neutrophil [30] = assay: Induction of ERK1/2-mediated directional migration in human neutrophils assessed as fluorescence of calcein at 10 uM after 45 mins by chemotaxis assay in presence of SB202190 MAPK inhibitor; assay type: functional, cell-based
Mus musculus [31] = assay: Induction of leukocyte recruitment in C57BL/6 mouse assessed as increase in number of neutrophils in peritoneal cavity at 40 ug, ip tid relative to NaCl treated control; assay type: functional, organism-based
Neutrophil [32] = assay: Induction of ERK1/2-mediated directional migration in human neutrophils assessed as fluorescence of calcein at 10 uM after 45 mins by chemotaxis assay in presence of pertussis toxin; assay type: functional, cell-based
Neutrophil [33] = assay: Induction of migration in human neutrophils at 10 uM after 45 mins by chemotaxis assay in presence of preincubation of 10 uM fMLP; assay type: functional, cell-based
[34] = molecular target: T4, N-formyl peptide receptor 2 (Homo sapiens, UniProt P25090); assay: (§2) Induction of calcium release in human FPR2 receptor-expressed HEK cell by cytosolic-free calcium assay; assay type: functional, cell-based, HEK293
T4 sequence (P25090 whole entry): T1 sequence (whole entry)

[35] = molecular target: T1, N-formyl peptide receptor 2 (Homo sapiens); assay: as §2; assay type: functional, cell-based; conditions: HEK293
Monocyte [36] = assay: Induction of ERK1/2-mediated directional migration in human monocytes assessed as fluorescence of calcein at 10 uM after 45 mins by chemotaxis assay in presence of natural compound; assay type: functional, cell-based
Neutrophil [37] = assay: Induction of migration in human neutrophils at 10 uM after 45 mins by chemotaxis assay in presence of preincubation of 0.1 uM fMLP; assay type: functional, cell-based
Escherichia coli [38] = assay: Induction of membrane disruption in Escherichia coli assessed as bacterial leakage by measuring Gal-ONp hydrolysis; assay type: organism-based
Mus musculus [39] = assay: Induction of leukocyte recruitment in C57BL/6 mouse assessed as increase in number of monocytes in blood at 40 ug, ip tid relative to NaCl treated control; assay type: functional, organism-based
Mus musculus [40] = assay: Induction of leukocyte recruitment in C57BL/6 mouse assessed as increase in number of macrophages in peritoneal cavity at 40 ug, ip tid 4 hr before pretreated with 3% thioglycollate relative to NaCl treated control; assay type: functional, organism-based
Mus musculus [41] = assay: Induction of leukocyte recruitment in C57BL/6 mouse assessed as increase in number of neutrophils in blood at 40 ug, ip tid relative to NaCl treated control; assay type: functional, organism-based
T-cell [42] = assay: Induction of ERK1/2-mediated directional migration in human T cell assessed as fluorescence of calcein at 10 uM after 45 mins by chemotaxis assay in presence of natural compound; assay type: functional, cell-based
Neutrophil [43] = assay: Induction of ERK1/2-mediated directional migration in human neutrophils assessed as enzyme phosphorylation at 10 uM by chemotaxis assay; assay type: functional, cell-based; conditions: TDE = time-dependent effect

CSCC[C@H](NC=O)C(=O)N[C@@H](CC(C)C)C(=O)N[C@@H](Cc1ccccc1)C(=O)O
inactive: Activity [2] | Activity (Neutrophil [3])
active: Activity [1]

H-SSLSKL-OH
> 100 µM: MIC (Escherichia coli [7]) | MIC (Staphylococcus aureus)
9 µM: EC50 [25]
active: Activity (Neutrophil [4]) | Activity (Monocyte [5]) | Activity (Neutrophil [11]) | Activity (T-cell [14]) | Activity [1] | Activity (Neutrophil [18]) | Activity [21] | Activity (Mus musculus [22]) | Activity [23] | Activity [24] Dose-dependent effect | Activity (Monocyte [27]) | Activity [28] | Activity (Neutrophil [29]) | Activity (Mus musculus [31]) | Activity (Neutrophil [33]) | Activity [35] Dose-dependent effect | Activity (Mus musculus [39]) | Activity (Mus musculus [41]) | Activity (Neutrophil [43]) tde
7.5 µM: EC50 [34]
Non-toxic: Activity [9] | Activity (Escherichia coli [38])
inactive: Activity (HEK293 [6]) | Activity (Neutrophil [8]) | Activity (Monocyte [10]) | Activity (Mus musculus [12]) | Activity (Neutrophil [13]) | Activity (Mus musculus [15]) | Activity (Neutrophil [16]) | Activity (HEK293 [17]) | Activity (Mus musculus [19]) | Activity (Mus musculus [20]) | Activity (Mus musculus [26]) | Activity (Neutrophil [30]) | Activity (Neutrophil [32]) | Activity [2] | Activity (Monocyte [36]) | Activity (Neutrophil [37]) | Activity (Mus musculus [40]) | Activity (T-cell [42])
